The text below walks through data of publication PMC8807572, “The zebrafish embryo as an in vivo model for screening nanoparticle-formulated lipophilic anti-tuberculosis compounds” (Disease Models & Mechanisms, 2022).

Usually MIC90 stands for an inhibitory concentration at the 90% level, which refers to growth in some studies and to a panel of isolates in others. Usually IC90 stands for the point of the concentration-response curve where the effect stands at 90%. One may read the IC99 as the concentration at which the effect reaches the 99% level. As usually defined, the CC50 is the concentration giving 50% cytotoxicity.

Converted amounts (≈) assume the structure as drawn. “And” between values parts separate entries of the source, which are not always exact repeats. Equal entries are not always repeated. Where two headings read alike, the source gives them in different places. Where only a bound is given, the exact number is not on record here.

The test system of one data set is extracellular Mm. Briefly: MIC90 resazurin microtiter assay against extracellular M. marinum. The class given is cell-based, Mycobacterium marinum.
The test system of data set [1] is intracellular Mm in murine BMDMs. In words: Anti-mycobacterial efficacy in M. marinum-infected BMDMs (CFU plating). The data set is classed as cell-based, Mycobacterium marinum. Particulars: for IC90: Mycobacterium marinum.
Another data set relates to Mtb. More on the design: method as in data not published. Particulars: in vitro, phenotypic HTS; ref data not published; cited from earlier work.
A further data set concerns VERO cells. More on the design: method as in data not published. Particulars: cytotoxicity in VERO cells; ref data not published; cited from earlier work.

For `COc1ccc2c(ccc3oc([N+](=O)[O-])cc32)c1` [C16, 7-methoxy-2-nitronaphtho[2,1-b]furan], the MIC90 with extracellular Mm (Mycobacterium marinum) is 0.016 µg/mL and 0.07 µM; in the data set with extracellular Mm (extracellular Mm, resazurin assay) it was 0.016 µg/mL; with extracellular Mm (extracellular Mm, resazurin assay, read-out: MIC90) it was 0.07 µM. Moreover, the IC90 in data set [1] (BMDM) is 0.013 µg/mL and 60 nM. In addition, the IC99 in data set [1] (intracellular M. marinum in BMDM, calculated from the macrophage infection assay data) is 0.03 µg/ml and 0.11 µM. Moreover, the “MIC90 against Mtb” value with Mtb is less than 8 µg/mL. Also, the CC50 in the data set with VERO cells was 0.3 µg/mL (≈ 1.23 µM).
Turning to `CO[C@H]1/C=C/O[C@@]2(C)Oc3c(C)c(O)c4c(O)c(c(/C=N/N5CCN(C)CC5)c(O)c4c3C2=O)NC(=O)/C(C)=C\C=C\[C@H](C)[C@H](O)[C@@H](C)[C@@H](O)[C@@H](C)[C@H](OC(C)=O)[C@@H]1C` [RIF, rifampicin], the MIC90 in the data set with extracellular Mm (Mycobacterium marinum, extracellular Mm, resazurin assay, read-out: MIC90) is 0.1 µg/mL and 0.12 µM. Also, the concentration for an effect of 99% (IC99) in data set [1] is 1.97 µg/ml and 2.41 µM. For the same compound, the IC90 in data set [1] (intracellular M. marinum in BMDM, calculated from the macrophage infection assay data, read-out: IC90) was 0.878 µg/mL and 1.07 µM.
